Key:
[1] = target: SDS-resistant complexes of α-synuclein and Aβ1-40 (Homo sapiens, UniProt P37840); experiment: Formation of SDS-resistant complexes of α-synuclein and Aβ1-40, immunoblotting analysis; format: biochemical; conditions: 10 µM α-synuclein, 10 µM Aβ1-40, 100 µM peptide
Text: Those in the art generally agree that β-Synuclein blocks Aβ proto-fibril formation by one of two possible mechanistic pathways. In the first pathway, inhibition is facilitated through indirectly blocking NAC or α-synuclein interaction with Aβ. In the second possible pathway, inhibition is facilitated by the direct blocking Aβ aggregation.

B103 cells = B103 cells overexpressing synuclein: cell adhesion and neurite extension; format: cell-based; conditions: catalase 100 µg/ml, superoxide dismutase 100 U/ml, vitamin E 500 µM
[2] = test system: GT1-7 murine hypothalamic neuronal cells; experiment: GT1-7 cells overexpressing α-synuclein: mitochondrial alterations and oxidative stress; format: cell-based
Description: To determine if the overexpression of α-synuclein causes dysregulated neuronal function, GT1-7 cells were transfected with the mammalian expression vector pCR3.1 (Invitrogen) using standard transfection protocols well known in the art. The cells were transfected with or without insertion of murine α-synuclein cDNA. The resulting expression of α-synuclein was measured at both mRNA and protein levels using RPA and immunoblotting analysis. Clones which either overexpressed or underexpressed α-synuclein (via transfection with an anti-sense plasmid) were selected and analyzed. […] These alterations were ameliorated by pretreatment with the anti-oxidant, vitamin E. Furthermore, α-synuclein overexpression in GT1-7 cells results in the formation of α-synuclein—immunopositive inclusion-like structures.

[3] = Aggregation of synuclein proteins under high temperature conditions (SDS-PAGE/Coomassie brilliant blue); format: physicochemical; conditions: 20 µM protein, pH 6.9, 65 °C, 0, 8 and 20 hours
Description: Each of the protein samples (20 µM) was incubated under pH 6.9, 65° C. conditions for 0, 8, and 20 hours. The incubated samples were run over SDS-PAGE and the resulting protein bands visualized by Coomassie/brilliant blue staining (FIG. 2).

B103 neuroblastoma cells = experiment: Aβ cytotoxicity in B103 neuroblastoma cells; format: cell-based; conditions: for effect on Aβ cytotoxicity / cell survival: Aβ 20 µM, serum-free, three days, protein 20 µM
Description: When B103 neuroblastoma cells were incubated with Aβ (20 µM) under serum-free conditions for three days, dead cells become prominent due to the cytotoxic effects of Aβ.

α-synuclein tg mice = experiment: Bigenic crosses: β-synuclein overexpression in α-synuclein tg mice (rotorod, neuropathological analysis); format: in vivo
Text: Motor deficits in Lewy body disease are associated with degeneration of the nigral dopaminergic neurons projecting to the striatum. To determine if loss of dopaminergic input to the striatum in transgenic mice is associated with Parkinson's disease related neurological impairments, mice were examined with a rotorod test, a behavioral testing mechanism well known to those familiar with such procedures. […] The dopaminergic and behavioral deficits were detected only in the high expression line and not in low-expression lines. […] This may lead to the conclusion that a critical threshold of α-synuclein accumulation is required for dopaminergic and behavioral deficits to become detectable. None-the-less, the evaluation of such neurophysiological characteristics, as previously described, are well known to those of skill in such evaluations. As such, it is apparent that the increased expression of wild-type α-synuclein plays a key role in the pathogenesis of neurodegenerative conditions associated with amyloidogenesis.

51-60 (Seq ID #11): synthetic peptide, amino acids 51-61 of β-synuclein: Gly Val Ala Ser Val Ala Glu Lys Thr Lys Glu (GVASVAEKTKE; listed as Homo sapiens)
suppression of the formation of SDS-resistant complexes of α-synuclein and Aβ1-40 [1]: significant suppression | suppression of the formation of SDS-resistant complexes of α-synuclein and Aβ1-40 ([1]; listed as a.a. 51-61 of β-synuclein): suppression

catalase
effect of anti-oxidants on altered adhesion and neurite outgrowth of synuclein overexpressing cells (B103 cells): little effect

superoxide dismutase
effect of anti-oxidants on altered adhesion and neurite outgrowth of synuclein overexpressing cells (B103 cells): little effect

vitamin E
effect of anti-oxidants on altered adhesion and neurite outgrowth of synuclein overexpressing cells (B103 cells): little effect | effect of pretreatment on alterations caused by α-synuclein overexpression (mitochondrial alterations, free radicals, glutathione, gonadotropin-releasing hormone secretion) [2]: ameliorated

α-synuclein [reference compound]
formation of aggregates / amyloid-like fibrils under high temperature conditions [3]: positive aggregation | effect on Aβ cytotoxicity / cell survival (B103 neuroblastoma cells): detrimental to cell survival | effect on Aβ toxicity in neuroblastoma cell (summary statement) (B103 neuroblastoma cells): enhances Aβ toxicity

β-synuclein
formation of aggregates / amyloid-like fibrils under high temperature conditions [3]: fails to show any formation of aggregates | motor deficits, rotorod performance (α-synuclein tg mice; β-synuclein overexpression in α-synuclein tg mice (bigenic crosses), FIG. 14): reduced the motor deficits | neuronal loss (α-synuclein tg mice; β-synuclein overexpression in α-synuclein tg mice, FIG. 16): reduction neuronal loss | neuronal inclusions (α-synuclein tg mice; β-synuclein overexpression in α-synuclein tg mice, neuropathological analysis, FIG. 15): reduction of neuronal inclusions | effect on Aβ cytotoxicity / cell survival (B103 neuroblastoma cells): blocked the effects of this cytotoxicity | effect on Aβ toxicity in neuroblastoma cell (summary statement) (B103 neuroblastoma cells): protective

β-synuclein .delta.1: β-synuclein mutant with amino acids 72-83 of NAC inserted by site-directed mutagenesis
formation of aggregates / amyloid-like fibrils under high temperature conditions [3]: aggregated to form amyloid-like fibrils

β-synuclein .delta.2: β-synuclein mutant with amino acids 63-72 of NAC N-terminal inserted by site-directed mutagenesis
formation of aggregates / amyloid-like fibrils under high temperature conditions [3]: aggregated to form amyloid-like fibrils
